Results on 37 molecules are retold here after US11485731B2, “Compounds and methods useful in the treatment of a PRMT5-mediated disorder” (ARGONAUT THERAPEUTICS LIMITED, priority 2017, dated 2022).

pIC50: −log10 of the molar value.

Chain of human PRMT5/MEP50 (O14744 whole entry): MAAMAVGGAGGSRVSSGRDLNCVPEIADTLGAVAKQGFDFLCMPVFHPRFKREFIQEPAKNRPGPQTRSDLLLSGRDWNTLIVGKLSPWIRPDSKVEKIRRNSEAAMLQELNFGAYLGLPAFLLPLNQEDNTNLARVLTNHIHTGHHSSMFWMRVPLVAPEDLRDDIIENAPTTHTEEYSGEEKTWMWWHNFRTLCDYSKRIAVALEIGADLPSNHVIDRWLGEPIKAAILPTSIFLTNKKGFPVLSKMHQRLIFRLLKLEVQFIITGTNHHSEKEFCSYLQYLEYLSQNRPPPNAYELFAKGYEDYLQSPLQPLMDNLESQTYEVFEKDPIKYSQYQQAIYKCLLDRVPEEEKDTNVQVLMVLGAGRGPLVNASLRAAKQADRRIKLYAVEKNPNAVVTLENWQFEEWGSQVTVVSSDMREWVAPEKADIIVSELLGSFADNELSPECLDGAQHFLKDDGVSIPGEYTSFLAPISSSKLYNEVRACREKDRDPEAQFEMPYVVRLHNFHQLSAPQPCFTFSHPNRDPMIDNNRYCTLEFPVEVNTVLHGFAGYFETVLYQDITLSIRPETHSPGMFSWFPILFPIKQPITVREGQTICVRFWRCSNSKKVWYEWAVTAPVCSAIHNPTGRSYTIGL
Chain of human PRMT5/MEP50 (Q9BQA1 whole entry partner): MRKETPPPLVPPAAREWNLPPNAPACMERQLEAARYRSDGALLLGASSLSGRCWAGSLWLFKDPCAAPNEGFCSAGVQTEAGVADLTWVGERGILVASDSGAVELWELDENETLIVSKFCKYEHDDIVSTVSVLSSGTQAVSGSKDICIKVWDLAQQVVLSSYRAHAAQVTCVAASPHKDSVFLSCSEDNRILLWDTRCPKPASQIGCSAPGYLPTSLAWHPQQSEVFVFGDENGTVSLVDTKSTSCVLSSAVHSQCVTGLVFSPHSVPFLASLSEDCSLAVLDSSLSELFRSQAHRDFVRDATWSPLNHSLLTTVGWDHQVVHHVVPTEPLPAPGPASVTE

This assay has as its target human PRMT5/MEP50 (Homo sapiens (Human), UniProt O14744). Nature of the assay: PRMT5 chemiluminescent assay. The class given is biochemical. To be noted: human PRMT5/MEP50 expressed in HEK293 cells; biotinylated histone peptides; Histone H4 monomethyl R3 antibody; chemiluminescent readout. The procedure, abridged:
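HEK293-expressed PRMT5/MEP50, diluted to 5 ng/µL in assay buffer, reacted 60 min with rotation on plate-bound biotinylated histone peptides. Product was detected with anti-histone H4 R3 monomethyl antibody (60 min), then HRP secondary (30 min) and chemiluminescent substrate. IC50 values came from the chemiluminescence signal.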
As usually defined, the pIC50 is the IC50 on a negative log10 scale, so that one unit is a factor of ten. Low values mean a large IC50, high ones a small IC50. In turn, `O=C(OCC(O)CN1CCc2ccccc2C1)N1CCc2ccccc2C1` (stereo not shown) [Example 3A, 3-(3,4-dihydroisoquinolin-2(1H)-yl)-2-hydroxypropyl 3,4-dihydroisoquinoline-2(1H)-carboxylate] had a pIC50 of 6.72. As for `O=C(OCC(O)CN1CCc2ccccc2C1)N1CCCCC1` (stereo not shown) [Example 3B, 2-hydroxy-3-(1,2,3,4-tetrahydroisoquinolin-2-yl)propyl piperidine-1-carboxylate], the pIC50 is 6.21.

Take `O=C(OCC(O)CN1CCc2ccccc2C1)N1CCCC1` (stereo not shown) [Example 3C, 2-hydroxy-3-(1,2,3,4-tetrahydroisoquinolin-2-yl)propyl pyrrolidine-1-carboxylate]: the pIC50 is 5.02.

The molecule `O=C(OCC(O)CN1CCc2ccccc2C1)N1CCC(c2ccccc2)C1` (stereo not shown) [Example 3D, 2-hydroxy-3-(1,2,3,4-tetrahydroisoquinolin-2-yl)propyl 3-phenylpyrrolidine-1-carboxylate] gave a pIC50 of 7.82. In the case of `O=C(OCC(O)CN1CCc2ccccc2C1)N1CCSCC1` (stereo not shown) [Example 4A, 3-(3,4-dihydroisoquinolin-2(1H)-yl)-2-hydroxypropyl thiomorpholine-4-carboxylate], the pIC50 is 6.32. In turn, `O=C(OCC(O)CN1CCc2sccc2C1)N1CCc2ccccc2C1` (stereo not shown) [Example 4AA, 3-(6,7-dihydrothieno[3,2-c]pyridin-5(4H)-yl)-2-hydroxypropyl 3,4-dihydroisoquinoline-2(1H)-carboxylate] gave a pIC50 of 7.34. Take `O=C(OCC(O)CN1CCc2ccsc2C1)N1CCc2ccccc2C1` (stereo not shown) [Example 4AB, 3-(4,7-dihydrothieno[2,3-c]pyridin-6(5H)-yl)-2-hydroxypropyl 3,4-dihydroisoquinoline-2(1H)-carboxylate]: the pIC50 was 6.00.

In the case of `O=C(OCC(O)CN1CCc2sccc2C1)N1CCCC(c2ccccc2)C1` (stereo not shown) [Example 4AC, 3-(6,7-dihydrothieno[3,2-c]pyridin-5(4H)-yl)-2-hydroxypropyl 3-phenylpiperidine-1-carboxylate], the pIC50 is 6.43. Then `O=C(OCC(O)CN1CCc2ccsc2C1)N1CCCC(c2ccccc2)C1` (stereo not shown) [Example 4AD, 3-(4,7-dihydrothieno[2,3-c]pyridin-6(5H)-yl)-2-hydroxypropyl 3-phenylpiperidine-1-carboxylate], with 6.65. With `O=C(OCC(O)CN1CCc2sccc2C1)N1CCC(c2ccccc2)C1` (stereo not shown) [Example 4AE, 3-(6,7-dihydrothieno[3,2-c]pyridin-5(4H)-yl)-2-hydroxypropyl 3-phenylpyrrolidine-1-carboxylate], the pIC50 is 7.39. Consider `O=C(OCC(O)CN1CCc2ccsc2C1)N1CCC(c2ccccc2)C1` (stereo not shown) [Example 4AF, 3-(4,7-dihydrothieno[2,3-c]pyridin-6(5H)-yl)-2-hydroxypropyl 3-phenylpyrrolidine-1-carboxylate], for which the pIC50 was 7.68. For the molecule `O=C(OCC(O)CN1CCc2ccccc2C1)N1CCCc2ccccc21` (stereo not shown) [Example 4AG, 3-(3,4-dihydroisoquinolin-2(1H)-yl)-2-hydroxypropyl 3,4-dihydroquinoline-1(2H)-carboxylate], the pIC50 was 6.44. As for `O=C(OCC(O)CN1CCc2ccccc2C1)N1CCC(C(=O)N2CCOCC2)CC1` (stereo not shown) [Example 4B, 3-(3,4-dihydroisoquinolin-2(1H)-yl)-2-hydroxypropyl 4-(morpholine-4-carbonyl)piperidine-1-carboxylate], the figure is 7.12; as for `O=C(OCC(O)CN1CCc2ccccc2C1)N1CCCC(Nc2ccncc2)C1` (stereo not shown) [Example 4C, 3-(3,4-dihydroisoquinolin-2(1H)-yl)-2-hydroxypropyl 3-(pyridin-4-ylamino)piperidine-1-carboxylate], 7.60. For the molecule `O=C(OCC(O)CN1CCc2ccccc2C1)N1CCC(Cc2ccccc2)CC1` (stereo not shown) [Example 4D, 3-(3,4-dihydroisoquinolin-2(1H)-yl)-2-hydroxypropyl 4-benzylpiperidine-1-carboxylate], the pIC50 was 6.76.

As to `O=C(OC[C@H](O)CN1CCc2ccccc2C1)N1CCC(c2ccccc2)C1` (stereo partly drawn) [Example 4E, (R)-3-(3,4-dihydroisoquinolin-2(1H)-yl)-2-hydroxypropyl 3-phenylpyrrolidine-1-carboxylate], the negative-log IC50 (pIC50) is 7.72. In the case of `O=C(OC[C@@H](O)CN1CCc2ccccc2C1)N1CCC(c2ccccc2)C1` (stereo partly drawn) [Example 4F, (S)-3-(3,4-dihydroisoquinolin-2(1H)-yl)-2-hydroxypropyl 3-phenylpyrrolidine-1-carboxylate], the pIC50 was 7.31. Consider `O=C(OC[C@H](O)CN1CCc2ccccc2C1)N1CCc2ccccc2C1` [Example 4G, (R)-3-(3,4-dihydroisoquinolin-2(1H)-yl)-2-hydroxypropyl 3,4-dihydroisoquinoline-2(1H)-carboxylate], for which the pIC50 is 8.10. Molecule `O=C(OC[C@@H](O)CN1CCc2ccccc2C1)N1CCc2ccccc2C1` [Example 4H, (S)-3-(3,4-dihydroisoquinolin-2(1H)-yl)-2-hydroxypropyl 3,4-dihydroisoquinoline-2(1H)-carboxylate] showed a pIC50 of 6.27.

As to `O=C(OCC(O)CN1CCc2ccccc2C1)N1CCCC(O)C1` (stereo not shown) [Example 4I, 3-(3,4-dihydroisoquinolin-2(1H)-yl)-2-hydroxypropyl 3-hydroxypiperidine-1-carboxylate], the pIC50 is 5.05. The molecule `CN1CCCN(C(=O)OCC(O)CN2CCc3ccccc3C2)CC1` (stereo not shown) [Example 4J, 3-(3,4-dihydroisoquinolin-2(1H)-yl)-2-hydroxypropyl 4-methyl-1,4-diazepane-1-carboxylate] gave a pIC50 of 6.61. For the molecule `O=C(OC[C@H](O)CN1CCc2ccccc2C1)N1CC[C@@H](c2ccccc2)C1` [Example 4K, (R)-3-(3,4-dihydroisoquinolin-2(1H)-yl)-2-hydroxypropyl (S)-3-phenylpyrrolidine-1-carboxylate], the pIC50 is 7.70. Consider `O=C(OC[C@H](O)CN1CCc2ccccc2C1)N1CC[C@H](c2ccccc2)C1` [Example 4L, (R)-3-(3,4-dihydroisoquinolin-2(1H)-yl)-2-hydroxypropyl (R)-3-phenylpyrrolidine-1-carboxylate], for which the pIC50 was 7.89.

Molecule `O=C(OCC(O)CN1CCc2ccccc2C1)N1CC[S+]([O-])CC1` (stereo not shown) [Example 4M, 3-(3,4-dihydroisoquinolin-2(1H)-yl)-2-hydroxypropyl thiomorpholine-4-carboxylate 1-oxide] showed a pIC50 of 5.65. As to `O=C(OCC(O)CN1CCc2ccccc2C1)N1CCS(=O)(=O)CC1` (stereo not shown) [Example 4N, 3-(3,4-dihydroisoquinolin-2(1H)-yl)-2-hydroxypropyl thiomorpholine-4-carboxylate 1,1-dioxide], the pIC50 is 3.67.

`CN(C)C(=O)C1CCN(C(=O)OC[C@H](O)CN2CCc3ccccc3C2)CC1` [Example 4O, (R)-3-(3,4-dihydroisoquinolin-2(1H)-yl)-2-hydroxypropyl 4-(dimethylcarbamoyl)piperidine-1-carboxylate] had a pIC50 of 5.57. `O=C(OC[C@H](O)CN1CCc2ccccc2C1)N1CCC(C(=O)N2CCOCC2)CC1` [Example 4P, (R)-3-(3,4-dihydroisoquinolin-2(1H)-yl)-2-hydroxypropyl 4-(morpholine-4-carbonyl)piperidine-1-carboxylate] showed a pIC50 of 6.65. As for `O=C(OC[C@H](O)CN1CCc2ccccc2C1)N1CCC(C(=O)N2C3CCC2COC3)CC1` [Example 4Q, (R)-3-(3,4-dihydroisoquinolin-2(1H)-yl)-2-hydroxypropyl 4-(3-oxa-8-azabicyclo[3.2.1]octane-8-carbonyl)piperidine-1-carboxylate], the pIC50 was 6.80.

In the case of `O=C(OC[C@H](O)CN1CCc2ccccc2C1)N1CCC(c2ccccn2)C1` (stereo partly drawn) [Example 4R, (R)-3-(3,4-dihydroisoquinolin-2(1H)-yl)-2-hydroxypropyl 3-(pyridin-2-yl)pyrrolidine-1-carboxylate], the pIC50 is 7.09.

Turning to `CN(C)C(=O)C1CN(C(=O)OCC(O)CN2CCc3ccccc3C2)C1` (stereo not shown) [Example 4S, 3-(3,4-dihydroisoquinolin-2(1H)-yl)-2-hydroxypropyl 3-(dimethylcarbamoyl)azetidine-1-carboxylate], the pIC50 was 5.30. Then `O=C(OCC(O)CN1CCc2ccccc2C1)N1CC(C(=O)N2CCOCC2)C1` (stereo not shown) [Example 4T, 3-(3,4-dihydroisoquinolin-2(1H)-yl)-2-hydroxypropyl 3-(morpholine-4-carbonyl)azetidine-1-carboxylate], with 5.73; and `O=C(OCC(O)CN1CCc2ccccc2C1)N1CC(C(=O)N2C3CCC2COC3)C1` (stereo not shown) [Example 4U, 3-(3,4-dihydroisoquinolin-2(1H)-yl)-2-hydroxypropyl 3-(3-oxa-8-azabicyclo[3.2.1]octane-8-carbonyl)azetidine-1-carboxylate], with 5.53. `CC(=O)N1CCCN(C(=O)OCC(O)CN2CCc3ccccc3C2)CC1` (stereo not shown) [Example 4V, 3-(3,4-dihydroisoquinolin-2(1H)-yl)-2-hydroxypropyl 4-acetyl-1,4-diazepane-1-carboxylate] showed a negative-log IC50 (pIC50) of 4.41. Then `COC(=O)N1CCCN(C(=O)OCC(O)CN2CCc3ccccc3C2)CC1` (stereo not shown) [Example 4W, 1-(3-(3,4-dihydroisoquinolin-2(1H)-yl)-2-hydroxypropyl) 4-methyl 1,4-diazepane-1,4-dicarboxylate], with 4.97; and `O=C(OC[C@@H](O)CN1CCc2ccccc2C1)N1CCC(C(=O)N2C3CCC2COC3)CC1` [Example 4X, (S)-3-(3,4-dihydroisoquinolin-2(1H)-yl)-2-hydroxypropyl 4-(3-oxa-8-azabicyclo[3.2.1]octane-8-carbonyl)piperidine-1-carboxylate], with 6.09.

Turning to `O=C(OCC(O)CN1CCc2sccc2C1)N1CCCc2ccccc21` (stereo not shown) [Example 4Y, 3-(6,7-dihydrothieno[3,2-c]pyridin-5(4H)-yl)-2-hydroxypropyl 3,4-dihydroquinoline-1(2H)-carboxylate], the pIC50 is 5.84. Molecule `O=C(OCC(O)CN1CCc2ccsc2C1)N1CCCc2ccccc21` (stereo not shown) [Example 4Z, 3-(4,7-dihydrothieno[2,3-c]pyridin-6(5H)-yl)-2-hydroxypropyl 3,4-dihydroquinoline-1(2H)-carboxylate] had a pIC50 of 6.35.
